Experiments:
[1] = test system: Highly purified T cells; assay: T cell proliferation induced by anti-CD3 mAb+PMA (BrdU); format: cell-based, human; conditions: read-out: IC50 aCD3
Text: T cells were purified by removing non-T cells. Briefly, monocytes were removed by cold agglutination. The resulting lymphoid cells were further purified by a cell enrichment immunocolumn [Cellect Human T (Biotex, Edmonton, Alberta, Canada)] by a process of negative selection.
(§1) Measurements of T Cell Proliferations Induced by Anti-CD3 mAB+PMA or Anti-CD28 mAb+PMA
(§2) Highly purified T cells (10^6/ml) were stimulated by immobilized anti-CD3 or anti-CD28 mAb in the presence of PMA. Anti-CD3 mAb (CLB-CD3; CLB, Amsterdam, The Netherlands) were fixed on the 96-microwell plates by incubating the wells with 50 μl of mAb solution […] 50 μl (1/650 dilution in culture medium) was added directly to the wells. Further, 20 μl PMA (Sigma, St. Louis, Mo., USA) solution (final concentration: 0.5 ng/ml) was added. Subsequently, 20 μl of immunosuppressants were added by serial dilution in triplicate wells. Finally 100 μl of the T cell suspension (10^6/ml) was added. After 48-hour incubation at 37° C. in 5% CO2 20 μl BrdU (100 μM solution) (Cell Proliferation Elisa, Boehringer-Mannheim Belgium) was added to each well. After a further overnight incubation the T cell proliferation was measured using a calorimetric immunoassay for qualification of cell proliferation based on measurements of the incorporation of BrdU during DNA synthesis. The optical density (OD) was measured by a Behring EL311 place reader at 450 nm (reference wavelength: […]). The percent suppression of proliferation by drugs was counted using the formula: […]

[2] = test system: Highly purified T cells; assay: T cell proliferation induced by anti-CD28 mAb+PMA (BrdU); format: cell-based, human; conditions: read-out: IC50 aCD28
Text: (§3) Various models may be used for testing an immunosuppressive effect. In vivo, for example, different transplantation models are available. They are strongly influenced by different immunogenicities, depending on the donor and recipient species used and depending on the nature of the transplanted organ. The survival time of transplanted organs can thus be used to measure the suppression of the immune response. In vitro, there exist also various models. The most used are lymphocyte activation tests. Usually activation is measured via lymphocyte proliferation. Inhibition of proliferation thus always means immunosuppression under the experimental conditions applied. There exist different stimuli for lymphocyte activation: • coculture of lymphocytes of […] (MLR=mixed lymphocyte reaction): lymphocytes expressing different minor and major antigens of the HLA-DR type (=allogens) activate each other non-specifically. • CD3 assay: here there is an activation of the T-lymphocytes via an exogenously added antibody (OKT3). This antibody reacts against the CD3 molecule located on the lymphocyte membrane. This molecule has a […]. […] This molecule is also located on the lymphocyte membrane, and delivers strong costimulatory signals. […] Reagents
T cells were purified by removing non-T cells. Briefly, monocytes were removed by cold agglutination. The resulting lymphoid cells were further purified by a cell enrichment immunocolumn [Cellect Human T (Biotex, Edmonton, Alberta, Canada)] by a process of negative selection. More than 95% of the B cells were removed with this procedure. After depletion, the resulting T cell preparation was highly purified explaining these cells could not be activated by PHA or rIL-2 alone at concentrations capable of stimulating RBMC prior to deletion.
as §1, §2

[3] = test system: Peripheral blood mononuclear cells (PBMC); assay: Mixed lymphocyte reaction (MLR), [3H]-thymidine incorporation; format: cell-based, human
Text: as §3
Mixed Lymphocyte Reaction
Peripheral blood mononuclear cells (PBMC) were isolated from heparinized peripheral blood by density gradient centrifugation over Lymphoprep (Nycomed, Maorstua, Norway). Allogeneic PBMC or EBV-transformed human B cells [RPMI1788 (ATCC name CCL156)] which strongly express B7-1 and B7-2 were used as stimulator calls after irradiation with 30 Gy. MLR was performed in triplicate wells. After 5 days incubation at 37° C., 1 μCi [^3H]-thymidine was added to each cup. After a further 16 hours incubation, cells were harvested and counted in a β-counter.
The percent suppression of proliferation by drugs was counted using the formula: […]

[4] = test system: Con A induced proliferation of lymphocytes; assay: Whole Blood Assay (WBA): Con A induced lymphoproliferation in blood of rats given test substances in vivo; set-up: species or system R/A rats; conditions: orally 40 mg/kg/d 2x/d 2d, blood taken after 8 h, Con A 15 μg/ml
Description: [formula] […] Whole Blood Assay (WBA): WBA is a lymphoproliferation assay performed in vitro but using lymphocytes present in whole blood, taken from animals that were previously given test substances in vivo.
Rats: inbred, male 6- to 8-weeks old R/A rats weighing ±200 g were used as recipients.
Drug administration: xanthine derivatives were dissolved in DMSO and further diluted with PBS. Products were given orally in different concentrations 2 times a day for 2 days. To perform the experiments, 6–8 hours after the last administration 1 ml of blood is taken by heart puncture after ether anesthesia and anticoagulated with 100 U/ml of preservative free heparine. […]
Heparinized whole blood was diluted (1:25) with complete RPMI medium and stimulated with 15 μg/ml of concanavalin A (Con A) in triplicate wells in 96-well microtiter plates at 37° C. and 5% CO2. After 96-h culture, proliferation was determined by measuring the incorporation (cpm) of [^3H]-thymidine.
The Con A induced proliferation of lymphocytes taken from rats receiving the test substances (exp) was compared with that from rats receiving only the solvent (con). The percent suppression was calculated as follows: […]

[5] = Homo sapiens, T-cell, anti-CD3 mAb+PMA pathway
[6] = Homo sapiens, T-cell, anti-CD28 mAb+PMA pathway
[7] = Homo sapiens, PBMC, lowest concentration giving 50% suppression of the MLR
[8] = lowest concentration giving 50% suppression of the MLR
[9] = Homo sapiens, T-cell, immunosuppressants for comparison, anti-CD3 mAb+PMA
[10] = Homo sapiens, T-cell, immunosuppressants for comparison, anti-CD28 mAb+PMA

Molecule	IC50 ([1]; anti-CD3 mAb+PMA pathway) [µM]	IC50 ([2]; anti-CD28 mAb+PMA pathway) [µM]	IC50 [3, 8] [µM]	also measured
CC#Cn1c(=O)c2c(ncn2C#CC)n(C)c1=O [Compound 2, 1,7-dipropynyl-3-methylxanthine]	–	–	–	melting point: 177 °C
Cn1c(=O)c2c(ncn2C)n(CC(C)(C)C)c1=O [Compound 68, 1,7-dimethyl-3-((tertbutyl)methyl)xanthine]	–	–	–	IC50 [1, 5]: 130 µM; IC50 [2, 6]: 120 µM; IC50 [3, 7]: 75 µM; melting point: 158 °C
1,3-dimethyl-7-allyl-8-[(4-trifluoromethyl)-fenyl]xanthine [Compound 82]	80	80	25	–
Cn1c(-c2ccc(S(N)(=O)=O)cc2)nc2c1c(=O)[nH]c(=O)n2C [Compound 37]	150	150	> 200	–
Cn1c(=O)c2c(nc(C3CCCC3)n2C)n(C)c1=S [Compound 66]	170	170	> 200	–
C#CCn1cnc2c1c(=O)n(C)c(=O)n2CC#C [Compound 3, 1-methyl-3,7-dipropynylxanthine]	150	100	150	–
COc1c(C)c2c(c(O)c1C/C=C(\C)CCC(=O)O)C(=O)OC2 [Moferil, Mycophenolic acid, reference compound]	–	–	–	IC50 [1, 9]: 0.05 µM; IC50 [2, 10]: 0.05 µM; IC50 [3, 7]: < 0.5 µM
Cn1c(-c2ccc(C(F)(F)F)cc2)nc2c1c(=O)[nH]c(=O)n2C [Compound 83]	> 200	150	> 200	–
CCCn1c(=O)c2[nH]c(-c3ccco3)nc2n(CCC)c1=S [Compound 61]	170	110	100	–
1,3-dimethyl-7-propyl-8-fenylxanthine [Compound 112]	45	40	20	–
Cn1cnc2c1c(=O)n(CCCCC(=O)O)c(=O)n2C [Compound 22, 1-(4-Carboxybutyl)-3,7-dimethylxanthine]	–	–	–	IC50 [1, 5]: > 200 µM; IC50 [2, 6]: > 200 µM; IC50 [3, 7]: > 200 µM; melting point: 195 °C
1,3-dipropyl-8-[4(dimethylamino(ethyl(amino-(sulfonyl))))fenyl]xanthine [Compound 9]	40	50	25	–
CCCn1c(=O)c2[nH]c(-c3ccco3)nc2n(CCC)c1=O [Compound 59]	155	135	15	–
1,3-dipropyl-2-thio-8-[4-((((N-2-aminoethyl)-amino)carbonyl)methyl)oxy)fenyl]xanthine [Compound 35]	50	70	50	–
1,3-dipropyl-8-[4(diethylamino(propyl(amino-(sulfonyl))))fenyl]xanthine [Compound 11]	40	55	25	% suppresion [4]: 33%
Cn1cnc2c1c(=O)[nH]c(=O)n2CC(C)(C)C [Compound 70]	180	140	> 200	–
CC#Cn1c(=O)c2c(ncn2C)n(C)c1=O [Compound 1, 1-propynyl-3,7-dimethylxanthine]	–	–	–	IC50 [1, 5]: 150 µM; IC50 [2, 6]: > 200 µM; IC50 [3, 7]: > 200 µM
1,7-diallyl-3-methyl-8-fenylxanthine [Compound 8]	35	80	30	–
CCCn1c(=O)c2c(nc(-c3ccc(-c4ccccc4)cc3)n2CCC)n(CCC)c1=O [Compound 116, 1,3,7-tripropyl-8-(p-bifenyl)xanthine]	45	40	160	–
Cn1c(=O)c2[nH]c(-c3ccco3)nc2n(C)c1=O [Compound 58]	160	170	> 200	–
1,3,7-tripropyl-8-(4-chlorofenyl)xanthine [Compound 118]	15	20	15	–
Cc1oncc1C(=O)Nc1ccc(C(F)(F)F)cc1 [Leflunomide, reference compound]	–	–	–	IC50 [1, 5]: 15 µM; IC50 [2, 6]: 20 µM; IC50 [3, 7]: 25 µM
CC#Cn1c(=O)c2c(ncn2C#CC)n(C#CC)c1=O [Compound 5, 1,3,7-tripropynylxanthine]	–	–	–	IC50 [1, 5]: 50 µM; IC50 [2, 6]: > 200 µM; IC50 [3, 7]: > 200 µM; melting point: 155 °C
Cn1c(=O)c2[nH]c(C3CCCC3)nc2n(C)c1=O [Compound 62]	> 200	190	> 200	–
CCCn1c(=O)c2[nH]c(-c3ccc(C(F)(F)F)cc3)nc2n(CCC)c1=O [Compound 48]	160	150	180	–
CC#Cn1c(=O)c2c(ncn2C)n(C#CC)c1=O [Compound 4, 1,3-dipropynyl-7-methylxanthine]	–	–	–	IC50 [1, 5]: 90 µM; IC50 [2, 6]: > 200 µM; IC50 [3, 7]: > 200 µM; melting point: 172 °C
CCCn1c(=O)c2[nH]c(C3CCCC3)nc2n(CCC)c1=O [Compound 63]	135	100	> 200	–
CO[C@H]1C[C@@H]2CC[C@@H](C)[C@@](O)(O2)C(=O)C(=O)N2CCCC[C@H]2C(=O)O[C@H]([C@H](C)C[C@@H]2CC[C@@H](O)[C@H](OC)C2)CC(=O)[C@H](C)/C=C(\C)[C@@H](O)[C@@H](OC)C(=O)[C@H](C)C[C@H](C)/C=C/C=C/C=C/1C [Rapamycin, reference compound]	–	–	–	IC50 [1, 9]: 0.001 µM; IC50 [2, 10]: 0.001 µM; IC50 ([3]; Homo sapiens, PBMC, immunosuppressants for comparison): 0.001 µM

Reference: patent US7253176B1, “Immunosuppressive effects of 8-substituted xanthine derivatives” (K.U. Leuven Research & Development, priority 2000, dated 2007)
